{"source": "patent US20200268728A1", "about": "“DRUG TARGETING CANCER STEM CELL” (Sumitomo Dainippon Pharma Co., Ltd., priority 2016, published 2020)", "key": {"[1]": {"tested_on": "LNCap cells", "experiment": "Combination with Example 24, inhibitory effect on sphere-forming ability (Test Example 6)", "type": "cell-based", "conditions": "LNCap sphere culture, test compound combined with Example 24 (2-1000 nmol/L), 4 days", "protocol": "After the culture, CellTiterGlo (Promega) was added into all of the wells, and the plate is allowed to stand at room temperature for 10 minutes to measure the intensity of luminescence of each well. […] The formula for calculating the rate is shown below.\nSphere formation rate (%)=(Lsample)/(Lcontrol)×100\nThe value obtained by dividing the sphere formation rate by 100 and subtracting the calculated value from 1 is defined as a sphere formation inhibitory effect. The formula for calculating the effect is shown below.\nSphere formation inhibitory effect=1−(Sphere formation rate/100)\nAlso, the measured cell survival rate of the combination was defined as (Ld).\nThe minimum value thereof (sCI) was used as the criteria for screening."}, "[2]": {"tested_on": "HCT-116 cells", "experiment": "Anti-tumor effect to HCT-116 tumor-bearing mouse (Test Example 2)", "type": "in vivo", "conditions": "oral, read-out: T/C (%); for response vs control in vivo at 150 mg/kg: dosage 150 mg/kg", "from_the_text": "The present compound can be used to evaluate the anti-tumor effect thereof. A 4 to 7-week-old nude mouse (BALB/cAnNCrj-nu/nu, female, CHARLES RIVER LABORATORIES JAPAN, INC.) received intradermal transplantation of HCT-116 cells (ATCC) in an amount of 3×10^6 cells/mouse around the ventral portion. The engraftment of HCT-116 cells was observed 5 to 14 days after the transplantation, and then each compound suspended in a solvent such as 0.5% methylcellulose solution was orally administrated to the mouse in a dose of 1 to 200 mg/kg one to twice daily. The tumor volume was measured over time after the administration to evaluate the effect for reducing the tumor volume by the administration of each compound. The tumor volume can be calculated from the minor axis and the major axis of the tumor measured with a digital caliper (Mitutoyo) according to the following formula:\nTumor volume [mm^3]=0.5×minor axis [mm]×(major axis [mm])^2\nThe tumor volume in control administration group treated with only a solvent such as 0.5% methylcellulose solution was compared with that of the present compound administration group, and T/C value was calculated according the following formula to evaluate the anti-tumor effect of the present compound.\nT/C(%)=(the tumor volume at the end of administration in the present compound administration group−the tumor volume at the start of administration in the present compound administration group)/(the tumor volume at the end of administration in the control administration group−the tumor volume at the start of administration in the control administration group)×100\nThe T/C values (%) of the present compound on each dosage and administration period in the HCT-116 tumor-bearing mouse are shown below."}, "[3]": {"conditions": "HCT-116, 456 h, administration period 19 day"}}, "note": "Counter-ions that a name gives are not always drawn. Like-named read-outs stand apart in the source and are kept apart here.", "data": [{"smiles": "CNC(=O)c1ccc(N2C(=S)N(c3ccc(C#N)c(C(F)(F)F)c3)C(=O)C2(C)C)cc1F", "note": "[Enzalutamide]", "values": [{"measurement": "sCI, minimum (Ld)/(Lc)", "setting": "[1]", "result": 0.826}]}, {"smiles": "COc1ccc(C(=O)Nc2cn(Cc3ccc(F)c(F)c3)cn2)cc1OC", "note": "[Example 11-2]", "values": [{"measurement": "response vs control in vivo at 150 mg/kg", "setting": "[2]; [3]", "result": 52, "unit": "%"}]}, {"smiles": "COc1ccc(C(=O)Nc2cn(Cc3cccc(Cl)c3)cn2)cc1OC", "note": "[Example 10-2, N-[1-(3-Chlorobenzyl)-1H-imidazol-4-yl]-3,4-dimethoxybenzamide hydrochloride]", "values": [{"measurement": "response vs control in vivo at 150 mg/kg", "setting": "[2]; [3]", "result": 53, "unit": "%"}]}, {"smiles": "COc1ccc(C(=O)Nc2cn(Cc3cc(F)cc(F)c3)cn2)cc1OC", "note": "[Example 12-2]", "values": [{"measurement": "response vs control in vivo at 150 mg/kg", "setting": "[2]; [3]", "result": 84, "unit": "%"}]}, {"smiles": "COc1ccc(C(=O)Nc2cn(Cc3cc(F)c(F)c(F)c3)cn2)cc1OC", "note": "[Example 13-2]", "values": [{"measurement": "response vs control in vivo at 15 mg/kg", "setting": "[2]; HCT-116, 528 h, dosage 15 mg/kg, administration period 22 day", "result": 72, "unit": "%"}, {"measurement": "response vs control in vivo at 150 mg/kg", "setting": "[2]; HCT-116, 528 h, administration period 22 day", "result": 45, "unit": "%"}]}, {"smiles": "O=C(/C=C/c1cccnc1)Nc1cn(Cc2cccc(Cl)c2)cn1", "note": "[Example 9-2, (2E)-N-(1-(3-Chlorobenzyl)-1H-imidazol-4-yl)-3-(pyridin-3-yl)prop-2-enamide dihydrochloride]", "values": [{"measurement": "response vs control in vivo at 150 mg/kg", "setting": "[2]; HCT-116, 384 h, administration period 16 day", "result": 65, "unit": "%"}]}, {"smiles": "CC(O)(CS(=O)(=O)c1ccc(F)cc1)C(=O)Nc1ccc(C#N)c(C(F)(F)F)c1", "note": "(centres unmarked) [Bicalutamide]", "values": [{"measurement": "sCI, minimum (Ld)/(Lc)", "setting": "[1]", "result": 0.421}]}]}
